# Measurements published in patent US12667572B2, “Tricyclic compounds useful in the treatment of cancer, autoimmune and inflammatory disorders” (SCHRÖDINGER, INC., priority 2021, dated 2026).
# Target: T1, full-length MALT1 protein His-MALT1(1-824) (Homo sapiens, UniProt Q9UDY8)
# T1 construct: full-length MALT1 protein His-MALT1(1-824); His (N); made in house; host or cells: baculovirus-infected insect cells
# T1 sequence (Q9UDY8 1-824): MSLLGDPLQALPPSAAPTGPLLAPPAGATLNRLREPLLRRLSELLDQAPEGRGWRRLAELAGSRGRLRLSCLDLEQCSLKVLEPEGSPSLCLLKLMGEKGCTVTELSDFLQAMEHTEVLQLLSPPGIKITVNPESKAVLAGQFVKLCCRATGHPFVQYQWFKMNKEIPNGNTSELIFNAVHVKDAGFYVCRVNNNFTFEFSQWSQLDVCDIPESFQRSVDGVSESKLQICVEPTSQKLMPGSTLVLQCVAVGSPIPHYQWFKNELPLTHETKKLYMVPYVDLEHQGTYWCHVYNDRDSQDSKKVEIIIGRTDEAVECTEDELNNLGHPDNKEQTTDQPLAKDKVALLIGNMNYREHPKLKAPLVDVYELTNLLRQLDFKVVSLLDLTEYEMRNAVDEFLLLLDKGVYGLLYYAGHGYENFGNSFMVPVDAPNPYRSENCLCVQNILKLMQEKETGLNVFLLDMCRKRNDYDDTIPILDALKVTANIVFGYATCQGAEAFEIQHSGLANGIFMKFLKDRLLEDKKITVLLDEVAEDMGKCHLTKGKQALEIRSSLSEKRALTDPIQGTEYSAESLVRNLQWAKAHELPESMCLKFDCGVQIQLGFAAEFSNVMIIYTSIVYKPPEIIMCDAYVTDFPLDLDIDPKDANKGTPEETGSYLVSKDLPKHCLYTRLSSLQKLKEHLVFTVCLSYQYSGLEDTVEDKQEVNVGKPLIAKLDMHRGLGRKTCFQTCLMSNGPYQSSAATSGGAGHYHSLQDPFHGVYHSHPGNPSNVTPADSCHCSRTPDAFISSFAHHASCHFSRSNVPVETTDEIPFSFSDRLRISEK
# Test: MALT1 protease assay, Assay 1 (2 nM MALT1, Ac-LRSR-AMC substrate)
# Format: biochemical
# Settings: 2 nM MALT1, 50 μM Ac-LRSR-AMC, 2 h pre-incubation, 8 hr incubation at RT
# Description: MALT1 protease activity was assessed in an in vitro assay using a tetrapeptide as substrate and full-length MALT1 protein His-MALT1(1-824) purified from baculovirus-infected insect cells. The tetrapeptide substrate is Ac-LRSR-AMC (SM Biochemicals) with Km measured at around 100 μM.
# The final assay buffer includes 1 nM (Assay 2) or 2 nM (Assay 1) of MALT1 full-length protein, 50 μM Ac-LRSR-AMC substrate, 50 mM Tris pH 7.5, 600 mM Sodium Citrate, 1 mM DTT, 1 mM EDTA, and 0.05% BSA in 384-well plate format using black microtiter square well plates (Optiplate 384-F, Perkin Elmer).
# Test compounds were dissolved in 100% DMSO at stock of 10 mM, with final DMSO concentration 0.1%. Test compounds were pre-incubated with MALT1 protein for 2 h at room temperature. Substrate was added after the pre-incubation and fluorescence signal was measured using Envision at excitation 355 nm and emission 460 nm after 8 hr incubation at RT. Increase in the assay signal was linear over this period and proportional with increase in the enzyme content.
# The fluorescence units were transformed to percentage of remaining activity by using the high control (HC, median of fluorescence signal from wells containing MALT1 protein, substrate, and DMSO) and low control (LC, median of fluorescence signal from wells with substrate only) with the formula below: […]
# IC50 and Hill coefficients were obtained using Graph Pad Prism (Graph Pad software, Inc, USA) with non-linear regression analysis.
row,Structure (SMILES),IC50
1,"CC1(C)C[C@@H](C(=O)Nc2cnc(-n3nccn3)c(Cl)c2)c2cnc3cc(C(F)F)nn3c21 (single isomer, unassigned) [Example 24, N-(5-chloro-6-(2H-1,2,3-triazol-2-yl)pyridin-3-yl)-2-(difluoromethyl)-8,8-dimethyl-7,8-dihydro-6H-cyclopenta[e]pyrazolo[1,5-a]pyrimidine-6-carboxamide]",≥ 1000 nM
2,"CC1(C)C[C@@H](C(=O)Nc2cnc([C@H]3CCCO3)c(Cl)c2)c2cnc3cc(Cl)nn3c21 (single isomer, unassigned) [Example 27, 2-chloro-N-(5-chloro-6-(tetrahydrofuran-2-yl)pyridin-3-yl)-8,8-dimethyl-7,8-dihydro-6H-cyclopenta[e]pyrazolo[1,5-a]pyrimidine-6-carboxamide]",≥ 1000 nM
3,"CC1(C)C[C@@H](C(=O)Nc2cnc(-n3ncc(CO)n3)c(Cl)c2)c2cnc3cc(Cl)nn3c21 (single isomer, unassigned) [Example 30, 2-chloro-N-(5-chloro-6-(4-(hydroxymethyl)-2H-1,2,3-triazol-2-yl)pyridin-3-yl)-8,8-dimethyl-7,8-dihydro-6H-cyclopenta[e]pyrazolo[1,5-a]pyrimidine-6-carboxamide]",≥ 1000 nM
4,"CC1(C)C[C@@H](C(=O)Nc2cnc(-n3nccn3)c(Cl)c2)c2cnc3cc(F)nn3c21 (single isomer, unassigned) [Example 32, N-(5-chloro-6-(2H-1,2,3-triazol-2-yl)pyridin-3-yl)-2-fluoro-8,8-dimethyl-7,8-dihydro-6H-cyclopenta[e]pyrazolo[1,5-a]pyrimidine-6-carboxamide]",≥ 1000 nM
5,"Cn1cnc(-c2ncc(NC(=O)[C@@H]3CC(C)(C)c4c3cnc3cc(Cl)nn43)cc2Cl)c1 (single isomer, unassigned) [Example 34, 2-chloro-N-(5-chloro-6-(1-methyl-1H-imidazol-4-yl)pyridin-3-yl)-8,8-dimethyl-7,8-dihydro-6H-cyclopenta[e]pyrazolo[1,5-a]pyrimidine-6-carboxamide]",≥ 1000 nM
6,"Cc1cc2ncc3c(n2n1)C1(CC1)CC3C(=O)Nc1cnc(-n2nccn2)c(Cl)c1 (stereo not shown) [Example 18, N-(5-chloro-6-(2H-1,2,3-triazol-2-yl)pyridin-3-yl)-2-methyl-6,7-dihydrospiro[cyclopenta[e]pyrazolo[1,5-a]pyrimidine-8,1′-cyclopropane]-6-carboxamide]",100 to 1000 nM

# The remaining lines, values ahead:
row,IC50,Structure (SMILES)
1,≥ 1000 nM,"CC1(C)C[C@@H](C(=O)Nc2cnc([C@@H]3CCCO3)c(Cl)c2)c2cnc3cc(Cl)nn3c21 (single isomer, unassigned) [Example 26, 2-chloro-N-(5-chloro-6-(tetrahydrofuran-2-yl)pyridin-3-yl)-8,8-dimethyl-7,8-dihydro-6H-cyclopenta[e]pyrazolo[1,5-a]pyrimidine-6-carboxamide]"
2,100 to 1000 nM,"CC1(C)C[C@H](C(=O)Nc2cnc([C@@H]3CCCO3)c(Cl)c2)c2cnc3cc(Cl)nn3c21 (single isomer, unassigned) [Example 28, 2-chloro-N-(5-chloro-6-(tetrahydrofuran-2-yl)pyridin-3-yl)-8,8-dimethyl-7,8-dihydro-6H-cyclopenta[e]pyrazolo[1,5-a]pyrimidine-6-carboxamide]"
3,10 to 100 nM,"C[C@@]1(C(F)(F)F)C[C@@H](C(=O)Nc2cnc(-n3nccn3)c(Cl)c2)c2cnc3cc(Cl)nn3c21 (single isomer, unassigned) [Example 39, 2-chloro-N-(5-chloro-6-(2H-1,2,3-triazol-2-yl)pyridin-3-yl)-8-methyl-8-(trifluoromethyl)-7,8-dihydro-6H-cyclopenta[e]pyrazolo[1,5-a]pyrimidine-6-carboxamide]"
4,10 to 100 nM,"CC1(C)CCC(C(=O)Nc2cnc(-n3nccn3)c(Cl)c2)c2cnc3cc(Cl)nn3c21 (stereo not shown) [Example 7, 2-chloro-N-(5-chloro-6-(2H-1,2,3-triazol-2-yl)pyridin-3-yl)-9,9-dimethyl-6,7,8,9-tetrahydropyrazolo[1,5-a]quinazoline-6-carboxamide]"
